From patent publication US20250154141A1 (University of Florida Research Foundation, Incorporated, priority 2021, published 2025) come the findings set out here.

Where two headings read alike, the source gives them in different places.

Type in all cases: cell-based
One assay concerns RS4; 11. Description: Cell viability assay (MTS) in RS4; 11 cells. The procedure:
(§1) Acute lymphoblastic leukemia cells (MOLT-4 and RS4; 11) were incubated with increasing concentrations of Bcl-xL degraders for 48 h. Cell viability was measured by tetrazolium-based MTS assay.

The target of assay [1] is T1, Bcl-xL (Homo sapiens, UniProt Q07817). Description: Protein degradation assay in Jurkat cells (Western blot), Bcl-xL. Set-up: endogenous in cells; host or cells: Jurkat cells. The conditions noted are these: for degradation of BCL-XL by Western blotting analysis: FIG. 1, 16 hours. How it is done:
(§2) Jurkat cells and human platelets were incubated with increasing concentrations of test compounds for 16 h. The cells were harvested and lysed in RIPA lysis buffer supplemented with protease and phosphatase inhibitor cocktails. An equal amount of protein ([…]) was resolved on a pre-cast 4-20% SDS-PAGE gel. Proteins were subsequently transferred to NOVEX PVDF membranes by electrophoresis. The membranes were blocked in blocking buffer (5% non-fat dry milk in TBS-T), and incubated with primary antibodies (at optimized concentrations) overnight at 4° C. After three washings in TBS-T, the membranes were incubated with an appropriate FIRP-conjugated secondary antibody for 1 h at room temperature. After extensive washing for three times, the proteins of interest was detected with ECL western blotting detection reagents and recorded with autoradiography (Pierce Biotech, Rockford, IL, USA). The primary antibodies for Bcl-xL (Cat #2762), Bcl-2 (Cat #2872), Mcl-1 (Cat #5453) and j-actin (Cat #4970) were purchased from Cell Signaling Technology. The relative band intensity was measured using ImageJ software and normalized to β-actin.
On the technique in general: Immunoblotting shows a protein as a band on a membrane.

Assay [2] deals with T2, Bcl-2 (Homo sapiens, UniProt P10415). The assay is described as follows: Protein degradation assay in Jurkat cells (Western blot), Bcl-2. Also on record: endogenous in cells; host or cells: Jurkat cells. The conditions noted are these: for degradation of BCL-2 by Western blotting analysis: FIG. 1, 16 hours. The procedure: as §2
T2 sequence (P10415 whole entry): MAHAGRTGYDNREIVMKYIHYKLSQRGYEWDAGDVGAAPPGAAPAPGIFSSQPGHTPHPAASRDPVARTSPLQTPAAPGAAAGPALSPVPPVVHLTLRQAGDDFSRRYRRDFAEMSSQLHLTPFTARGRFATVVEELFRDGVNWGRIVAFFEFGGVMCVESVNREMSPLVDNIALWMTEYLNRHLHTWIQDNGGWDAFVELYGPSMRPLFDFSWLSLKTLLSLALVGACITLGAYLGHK
For the next assay, the system named is MOLT-4. The assay is described as follows: Cell viability assay (MTS) in MOLT-4 cells. How it is done:
as §1

For the next assay, the system named is human platelets. Description: Platelet toxicity assay (MTS viability). The note with it: for IC50: 48 h, human platelets; for Platelets/MOLT-4 IC50 Fold change / PLT/MOLT-4 IC50 Fold Change: ratio of platelet IC50 to MOLT-4 IC50. The procedure:
Platelet-rich plasma (PRP) was purchased from Life South Community Blood Centers (Gainesville, FL, USA). PRP was transferred into a 50 mL tube containing 5 mL of the acid citrate buffer (Cat. No. sc-214744, Santa Cruz Biotechnology). To prevent clotting, prostaglandin E1 (PGE1, Cat. No. sc-201223A, Santa Cruz Biotechnology, Dallas, TX, USA) and apyrase (Cat. No. A6237, Sigma-Aldrich, St. Louis, MO, USA) were added to final concentrations of […] and 0.2 U/mL, respectively. After gently mixing the solution, platelets were pelleted by centrifugation at 1200 g for 10 min without break. Pelleted platelets were gently washed without disturbing platelets using 2 mL of HEPES Tyrode's buffer (Cat. No. PY-921WB, Boston BioProducts, Ashland, MA, USA) containing […] PGE1 and 0.2 U/mL apyrase. After washing, pellets were gently suspended in 10 mL of HEPES Tyrode's buffer containing […] PGE1 and 0.2 U/mL apyrase. Then, the platelet number was counted using a HEMAVET 950FS hematology analyzer (Drew Scientific, Inc., Oxford, CT, USA). For viability assays, the platelet number was adjusted to 2×10^8/mL in HEPES Tyrode's buffer containing […] PGE1 and 0.2 U/mL apyrase. Each treatment was given in 2 mL of the platelet suspension in 15 mL polypropylene tubes. The tubes were placed on a rotating platform at room temperature, and the viability of platelets was measured after 48 h treatment by using the MTS reagent (Cat. No. G1111, Promega, Madison, WI, USA). The data were analyzed by the GraphPad Prism 7 software for the calculation of IC50 values.

Assay [3] addresses T2, Bcl-2. Description: Protein degradation assay in human platelets (Western blot), Bcl-2. Set-up: endogenous in cells; host or cells: human platelets. The note with it: FIG. 4, 16 h. How it is done: as §2
The target of assay [4] is T1, Bcl-xL. Description: Protein degradation assay in human platelets (Western blot), Bcl-xL. Set-up: endogenous in cells; host or cells: human platelets. The note with it: FIG. 4, 16 h. The procedure:
as §2

[5] abbreviates: Homo sapiens, RS4-11, Table 2, 48 hr, MTS, read-out: Anti-Cancer Activity IC50 (48 hr) RS4, 11.
The mark [6] stands for this setting: Homo sapiens, MOLT-4, Table 2, 48 hr, MTS, read-out: Anti-Cancer Activity IC50 (48 hr) MOLT-4.
[7] abbreviates: Homo sapiens, RS4-11, 48 h, read-out: Anti-Cancer Activity IC50 (48 hr) RS4, 11.
Setting [8] is: Homo sapiens, MOLT-4, 48 h, read-out: Anti-Cancer Activity IC50 (48 hr) MOLT-4.
The mark [9] stands for this setting: Homo sapiens, RS4-11, Table 6, 48 h, read-out: RS4 48 h IC50.
Where [10] appears, read: Homo sapiens, Platelet, Table 6, 4 th time, read-out: Platelets 4 th time 48 h IC50.
[11] abbreviates: Homo sapiens, MOLT-4, Table 6, 48 h, read-out: MOLT-4 48 h IC50.
Where [12] appears, read: FIGS. 2-3, increasing concentrations 16 hours, 100 nM for various durations.
Setting [13] is: FIGS. 2C, 3C, 16 h treatment, wash-off, cultured without compound 0 to 48.
The mark [14] stands for this setting: Homo sapiens, RS4-11, Table 4, 48 h, read-out: RS4 48 h IC50.
Where [15] appears, read: Homo sapiens, Platelet, Table 4, read-out: Platelets 48 h IC50.
[16] abbreviates: Homo sapiens, MOLT-4, Table 4, 48 h, read-out: MOLT-4 48 h IC50.

T1 sequence (Q07817 whole entry): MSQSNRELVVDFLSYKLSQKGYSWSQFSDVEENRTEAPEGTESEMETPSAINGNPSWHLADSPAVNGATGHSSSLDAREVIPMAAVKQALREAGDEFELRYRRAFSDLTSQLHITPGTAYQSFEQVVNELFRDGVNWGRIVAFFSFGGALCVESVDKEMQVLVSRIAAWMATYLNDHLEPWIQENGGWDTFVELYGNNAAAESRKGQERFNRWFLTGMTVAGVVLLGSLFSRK

For orientation: IC50 means the midpoint of a concentration-inhibition curve. On to `Cc1ncsc1-c1ccc([C@H](C)NC(=O)[C@@H]2C[C@@H](O)CN2C(=O)[C@@H](NC(=O)CN2CCC(CC(=O)N3CCN(CC4(C)CCC(c5ccc(Cl)cc5)=C(CN5CCN(c6ccc(C(=O)NS(=O)(=O)c7ccc(N[C@H](CCN8CCOCC8)CSc8ccccc8)c(S(=O)(=O)C(F)(F)F)c7)cc6)CC5)C4)CC3)CC2)C(C)(C)C)cc1` (stereo partly shown) [Compound 26], for which the values for the IC50 with RS4; 11 (setting [5]) and in the assay with MOLT-4 (setting [6]) were 0.02 to 0.1 µM and < 0.02 µM, respectively. In addition, the “degradation of BCL-XL by Western blotting analysis” value on Bcl-xL [1] is listed as “exemplary degradation”. Besides, the “degradation of BCL-2 by Western blotting analysis” value at Bcl-2 [2] is on record as “exemplary degradation”.
In the case of `Cc1ncsc1-c1ccc([C@H](C)NC(=O)[C@@H]2C[C@@H](O)CN2C(=O)[C@@H](NC(=O)CN2[C@@H]3CC[C@H]2CN(CC(=O)N2CCN(CC4(C)CCC(c5ccc(Cl)cc5)=C(CN5CCN(c6ccc(C(=O)NS(=O)(=O)c7ccc(N[C@H](CCN8CCOCC8)CSc8ccccc8)c(S(=O)(=O)C(F)(F)F)c7)cc6)CC5)C4)CC2)C3)C(C)(C)C)cc1` (stereo partly shown) [Compound 32], the IC50 in the assay on RS4; 11 (setting [7]) and in the assay with MOLT-4 (setting [8]) was < 0.02 µM each time. In addition, the “degradation of BCL-XL by Western blotting analysis” value on Bcl-xL [1] is listed as “exemplary degradation”. The “degradation of BCL-2 by Western blotting analysis” value on Bcl-2 [2] is given as “exemplary degradation”.
As to `Cc1ncsc1-c1ccc([C@H](C)NC(=O)[C@@H]2C[C@@H](O)CN2C(=O)[C@@H](NC(=O)CCCCCCC(=O)N2CCN(CC3(C)CCC(c4ccc(Cl)cc4)=C(CN4CCN(c5ccc(C(=O)NS(=O)(=O)c6ccc(N[C@H](CCN7C[C@H]8C[C@@H]7CO8)CSc7ccccc7)c(S(=O)(=O)C(F)(F)F)c6)cc5)CC4)C3)CC2)C(C)(C)C)cc1` (stereo partly shown) [Compound 65], the IC50 with RS4; 11 (setting [5]) is < 0.02 µM; with RS4; 11 (setting [9]), 0.0042 µM; in the assay on human platelets (setting [10]) it was 1.6 µM; in the assay on MOLT-4 (setting [6]) it was < 0.02 µM; in the assay on MOLT-4 (setting [11]), 0.0028 µM. The “degradation of BCL-XL by Western blotting analysis” value on Bcl-xL [1] was “exemplary degradation”. Also, in the assay on human platelets (Table 6), the “Platelets/MOLT-4 IC50 Fold change” value was found to be 711. The “degradation of BCL-2 by Western blotting analysis” value on Bcl-2 [2] is recorded as “exemplary degradation”.
With `Cc1ncsc1-c1ccc([C@H](C)NC(=O)[C@@H]2C[C@@H](O)CN2C(=O)[C@@H](NC(=O)CN2CCN(CC(=O)N3CCN(CC4(C)CCC(c5ccc(Cl)cc5)=C(CN5CCN(c6ccc(C(=O)NS(=O)(=O)c7ccc(N[C@H](CCN8C[C@H]9C[C@@H]8CO9)CSc8ccccc8)c(S(=O)(=O)C(F)(F)F)c7)cc6)CC5)C4)CC3)CC2)C(C)(C)C)cc1` (stereo partly shown) [Compound 68], the IC50 was < 0.02 µM in the assay on RS4; 11 (setting [7]); 0.005 µM in the assay with RS4; 11 (Homo sapiens, RS4-11, 48 h, read-out: RS4 48 h IC50); 0.777 µM in the assay with human platelets (Platelet, Table 3, mean of two independent experiments in triplicates, read-out: Platelets 48 h IC50); 0.777 µM in the assay on human platelets (Platelet, Table 6, 4 th time, read-out: Platelets 4 th time 48 h IC50); < 0.02 µM with MOLT-4 (setting [8]); 0.0032 µM in the assay with MOLT-4 (Homo sapiens, MOLT-4, 48 h, read-out: MOLT-4 48 h IC50). Further, the “degradation of BCL-XL by Western blotting analysis” value at Bcl-xL [1] is listed as “exemplary degradation”. The “degradation of Bcl-xL (immunoblot)” value at Bcl-xL [1] (setting [12]) is “dose- and time-dependently degraded”. For the same compound, at Bcl-xL [1] (setting [13]), the “duration of Bcl-xL degradation after wash-off” value is reported as “long-lasting”. For the same compound, the “Platelets/MOLT-4 IC50 Fold change” value with human platelets (Table 3) and in the assay on human platelets (Table 6) was 240 throughout. Besides, the “Bcl-2 expression levels in human platelets” value at Bcl-2 [3] is listed as “do not affect”. For the same compound, the “degradation of BCL-2 by Western blotting analysis” value on Bcl-2 [2] is given as “exemplary degradation”. Also, the “degradation of Bcl-2 (immunoblot)” value at Bcl-2 [2] (setting [12]) is “dose- and time-dependently degraded”. In addition, at Bcl-2 [2] (setting [13]), the “duration of Bcl-2 degradation after wash-off” value was “long-lasting”. Also, on Bcl-xL [4], the “Bcl-xL expression levels in human platelets” value was “do not affect”.
For the compound `Cc1ncsc1-c1ccc([C@H](C)NC(=O)[C@@H]2C[C@@H](O)CN2C(=O)[C@@H](NC(=O)CCCCCC(=O)N2CCN(CC[C@H](CSc3ccccc3)Nc3ccc(S(=O)(=O)NC(=O)c4ccc(N5CCN(CC6=C(c7ccc(Cl)cc7)CCC(C)(C)C6)CC5)cc4)cc3S(=O)(=O)C(F)(F)F)CC2)C(C)(C)C)cc1` [DT2216, reference compound], the IC50 in the assay with RS4; 11 (Table 4, 48 h, read-out: RS4 48 h IC50) was 0.18 to 0.23 µM; in the assay with human platelets (Table 4, read-out: Platelets 48 h IC50), > 10 µM; in the assay with MOLT-4 (Table 4, 48 h, read-out: MOLT-4 48 h IC50), 0.05 to 0.08 µM. Further, the “PLT/MOLT-4 IC50 Fold Change” value with human platelets (Table 4) was >150.
Take `Cc1ncsc1-c1ccc([C@H](C)NC(=O)[C@@H]2C[C@@H](O)CN2C(=O)[C@@H](NC(=O)CCCCCCC(=O)N2CCN(CC3(C)CCC(c4ccc(Cl)cc4)=C(CN4CCN(c5ccc(C(=O)NS(=O)(=O)c6ccc(N[C@H](CCN7CCOCC7)CSc7ccccc7)c(S(=O)(=O)C(F)(F)F)c6)cc5)CC4)C3)CC2)C(C)(C)C)cc1` (stereo partly shown) [PP18319C8]: the values for the IC50 with RS4; 11 (setting [14]), in the assay on human platelets (setting [15]) and with MOLT-4 (setting [16]) were 0.0187 µM, 1.64 µM and 0.0174 µM, respectively. The “PLT/MOLT-4 IC50 Fold Change” value with human platelets (Table 4) turned out to be 94.
In the case of `Cc1ncsc1-c1ccc([C@H](C)NC(=O)[C@@H]2C[C@@H](O)CN2C(=O)[C@@H](NC(=O)CCCCCCC(=O)N2CCN(C[C@]3(C)CCC(c4ccc(Cl)cc4)=C(CN4CCN(c5ccc(C(=O)NS(=O)(=O)c6ccc(N[C@H](CCN7CCOCC7)CSc7ccccc7)c(S(=O)(=O)C(F)(F)F)c6)cc5)CC4)C3)CC2)C(C)(C)C)cc1` [PZ753B, reference compound], the figures for the IC50 in the assay on RS4; 11 (setting [14]), with human platelets (setting [15]) and with MOLT-4 (setting [16]) were 0.0058 µM, 1.05 µM and 0.0069 µM, respectively. For the same compound, the “PLT/MOLT-4 IC50 Fold Change” value in the assay with human platelets (Table 4) is 152.
On to `Cc1ncsc1-c1ccc([C@H](C)NC(=O)[C@@H]2C[C@@H](O)CN2C(=O)[C@@H](NC(=O)CCCCCCC(=O)N2CCN(CC3(C)CCC(c4ccc(Cl)cc4)=C(CN4CCN(c5ccc(C(=O)NS(=O)(=O)c6ccc(N[C@H](CCN7C[C@@H]8C[C@H]7CO8)CSc7ccccc7)c(S(=O)(=O)C(F)(F)F)c6)cc5)CC4)C3)CC2)C(C)(C)C)cc1` (stereo partly shown) [compound 64], for which the IC50 was < 0.02 µM in the assay with RS4; 11 (setting [5]); 0.0047 µM in the assay with RS4; 11 (setting [9]); 0.884 µM in the assay on human platelets (setting [10]); < 0.02 µM in the assay with MOLT-4 (setting [6]); 0.0029 µM with MOLT-4 (setting [11]).
